Test results as given in patent US20250275976A1, “Methods of Treating Neuroinflammatory Conditions” (Athira Pharma, Inc., priority 2022, published 2025).
Read-outs that look alike come from different tables or passages of the source. Square brackets hold non-standard residues; d marks the D form. Peptide text beside a SMILES is read from it. * marks the point of attachment. Hexanoyl = CCCCCC(=O)*; Ahx = NCCCCCC(=O)O

Experiments:
[1] = system: Prp-TDP43^A315T mice; type: in vivo
Method: Extranuclear accumulation of TDP-43 protein is a pathological hallmark of a number of neurological diseases. […] Male Prp-TDP43^A315T mice (N=10 mice per group) at 3 weeks of age were administered daily treatments of test compounds. Compound A19 was administered via subcutaneous injection, and Compound 5a and Compound 6a were administered via oral gavage. After 2 months of treatment, plasma samples were collected for cytokine quantification. […] Plasma IL-6 and TNF-α cytokine expression levels were determined using the ELISA method. The submandibular vein was punctured with a lancet and a blood drop was collected directly on a microtube containing EDTA as anticoagulant. Samples were centrifuged for 15 minutes at 1000×g at 4° C. within 20 minutes of collection. 20 μl of plasma supernatant was stored at −20° C. before ELISA analysis.
Plasma was diluted at 1:10 in sterile PBS, and IL-6 and TNF-α quantification was performed in duplicate for each animal using 10 μl of sample per well in 96-well plates using the ELISA method (IL-6: Signa-Aldrich Cat #RAB0308, TNF-α: Sigma-Aldrich Cat #RAB0477). Statistical analysis was carried out by 2-way ANOVA with Dunnett's multiple comparisons post-test with compound-treated samples compared to vehicle-treated samples.

[2] = system: BV2 microglia; experiment: Quantigene gene expression panel in LPS-stimulated BV2 microglia; type: cell-based; parameters: key to Significant reduction in target transcript abundance compared to LPS-stimulated BV2 lysates: NLRP3 / Significant reduction in target transcript abundance compared to LPS-stimulated BV2 lysates: IL-1β / Significant reduction in target transcript abundance compared to LPS-stimulated BV2 lysates: IL-6 / Significant reduction in target transcript abundance compared to LPS-stimulated BV2 lysates: iNOS: “NS” indicates a non-significant reduction indicated gene expression compared to LPS-treated cultures; “+” indicates a p value < 0.05; “++” indicates a p value < 0.01; “+++” indicates a p value < 0.001; “+++” indicates a p value < 0.0005 in Dunnett's multiple comparison
Method: Changes in gene expression in BV2 cells in response to stimulation with LPS and whether or not these gene expression changes are influenced by treatment with Compound A19-AM was also examined. Inflammatory activation of BV2 microglia was stimulated by pre-treatment with LPS for 45 minutes followed by the addition of test compound for 23.5 hours. Cell cultures were then lysed and processed for expression profiling via bead-based transcript quantification using the Quantigene multiplex gene expression assay (ThermoFisher) and a custom array of target transcripts relevant to inflammatory activation. Expression of a major component of the inflammasome (NLRP3), cytokines (TNF-α, IL-1β, and IL-6), and inducible nitric oxide synthase (iNOS) were assessed. Expression data were quantified as fold change compared to unstimulated cell cultures. Statistical analysis consisted of one-way ANOVA with Dunnett's multiple comparisons post-test compared to LPS-stimulated lysates. Gene expression data is represented in Table 14. Expression of all inflammatory transcript targets were induced by treatment with LPS.

[3] = system: BV2 microglia; experiment: pAKT in LPS-stimulated BV2 microglia (HTRF); type: cell-based; conditions: for Inflammatory Readout: pAKT (significance of reduction): LPS pre-treatment 45 minutes, compound 1 hour
Source text: Microglia are the resident immune cells of the brain and, when activated by pathological conditions, promote broad-spectrum neuroinflammation. When activated by toxic exogenous substances, microglia produce excessive reactive oxygen species (ROS), nitric oxide (NO), and proinflammatory cytokines, which further propagates disease pathogenesis. BV2 microglia were used as an in-vitro cell model to evaluate mechanisms relevant to inflammation in the CNS. Upon activation of TLR4 with LPS, microglia are activated and trigger excessive oxidative stress, a process that is partially mediated by AKT phosphorylation (pAKT) and activation. Microglia activation also leads to a range of changes in gene expression.
Compound A19 active metabolite (Compound A19-AM) was investigated for whether it could reduce the inflammatory effect of LPS in microglia. Inflammatory activation of BV2 microglia cells was stimulated by pre-treatment with LPS for 45 minutes, followed by the addition of test compound for 1 hour (pAKT) or 23.5 hours (NO and gene expression panel). For pAKT measurement, cells were lysed and the pAKT measurement was conducted using the HTRF system. For NO production, culture supernatants were collected and assessed for the presence of nitrite, a primary metabolic product of nitric oxide.
Quantification of nitrite production in cell culture supernatants was accomplished using the Griess Reagent System (Promega, G2930). Measurement of pAKT was assessed utilizing Phospho-AKT 1/2/3 (Ser473) […] Cellular Detection Kit (CisBio, 64AKSPEH).
Data analysis was performed via One-way ANOVA with Dunnett's multiple comparisons test compared to LPS-stimulated, vehicle treated cultures using Prism statistical software (GraphPad). Tabular data indicates significance of reduction in the indicated analyte at the indicated dose.

[4] = 2 months of treatment, doses as in the value

## CCC(C)CN1CC2N(Cc3ccc(C(F)(F)F)cc3)CCC(=O)N2[C@@H](C)C1=O (stereo partly drawn) [Compound 5a]
[1]; 2 mg/kg PO daily
  Significant decrease in plasma cytokine expression after 2 months of treatment: IL-6: ++++ (++++ = p < 0.0001)
  Significant decrease in plasma cytokine expression after 2 months of treatment: TNF-α: ++++ (++++ = p < 0.0001)
[1]; 10 mg/kg PO daily
  Significant decrease in plasma cytokine expression after 2 months of treatment: IL-6: ++++ (++++ = p < 0.0001)
  Significant decrease in plasma cytokine expression after 2 months of treatment: TNF-α: ++++ (++++ = p < 0.0001)
[1]; 20 mg/kg PO daily
  Significant decrease in plasma cytokine expression after 2 months of treatment: IL-6: ++++ (++++ = p < 0.0001)
  Significant decrease in plasma cytokine expression after 2 months of treatment: TNF-α: ++++ (++++ = p < 0.0001)
[1]; [4]
  Plasma IL-6 expression (result in words): significantly reduced both cytokine levels at doses of 2, 10, and 20 mg/kg
  Plasma TNF-α expression (result in words): significantly reduced both cytokine levels at doses of 2, 10, and 20 mg/kg

## CCCCCC(=O)N[C@@H](Cc1ccc(O)cc1)C(=O)N[C@H](C(=O)NCCCCCC(N)=O)[C@@H](C)CC [Compound A19 active metabolite, dihexa] (Hexanoyl-Tyr-Ile-[Ahx]-NH2)
[2]; concentrations as in the value
  Expression of IL-1β (result in words): reduced at treatment concentrations of 100 nM and 1 μM
  Expression of IL-6 (result in words): reduced at by treatment with 1 μM
  Expression of NLRP3 (result in words): significantly reduced by treatment with 100 nM and 1 μM
  Expression of TNF-α (result in words): reduced by treatment with A19-AM at all tested concentrations
  Expression of iNOS (result in words): significantly reduced by treatment with A19-AM at concentrations of 100 nM and 1 μM
[2]; dose 1 pM
  Significant reduction in target transcript abundance compared to LPS-stimulated BV2 lysates: IL-1β: NS
  Significant reduction in target transcript abundance compared to LPS-stimulated BV2 lysates: IL-6: NS
  Significant reduction in target transcript abundance compared to LPS-stimulated BV2 lysates: NLRP3: NS
  Significant reduction in target transcript abundance compared to LPS-stimulated BV2 lysates: iNOS: NS
[2]; dose 10 pM
  Significant reduction in target transcript abundance compared to LPS-stimulated BV2 lysates: IL-1β: NS
  Significant reduction in target transcript abundance compared to LPS-stimulated BV2 lysates: IL-6: NS
  Significant reduction in target transcript abundance compared to LPS-stimulated BV2 lysates: NLRP3: NS
  Significant reduction in target transcript abundance compared to LPS-stimulated BV2 lysates: iNOS: NS
[2]; dose 100 pM
  Significant reduction in target transcript abundance compared to LPS-stimulated BV2 lysates: IL-1β: NS
  Significant reduction in target transcript abundance compared to LPS-stimulated BV2 lysates: IL-6: NS
  Significant reduction in target transcript abundance compared to LPS-stimulated BV2 lysates: NLRP3: NS
  Significant reduction in target transcript abundance compared to LPS-stimulated BV2 lysates: iNOS: NS
[2]; dose 100 nM
  Significant reduction in target transcript abundance compared to LPS-stimulated BV2 lysates: IL-1β: + (“+” indicates a p value < 0.05)
  Significant reduction in target transcript abundance compared to LPS-stimulated BV2 lysates: IL-6: NS
  Significant reduction in target transcript abundance compared to LPS-stimulated BV2 lysates: NLRP3: ++ (“++” indicates a p value < 0.01)
  Significant reduction in target transcript abundance compared to LPS-stimulated BV2 lysates: iNOS: ++ (“++” indicates a p value < 0.01)
[2]; dose 1 μM
  Significant reduction in target transcript abundance compared to LPS-stimulated BV2 lysates: IL-1β: ++ (“++” indicates a p value < 0.01)
  Significant reduction in target transcript abundance compared to LPS-stimulated BV2 lysates: IL-6: + (“+” indicates a p value < 0.05)
  Significant reduction in target transcript abundance compared to LPS-stimulated BV2 lysates: NLRP3: + (“+” indicates a p value < 0.05)
  Significant reduction in target transcript abundance compared to LPS-stimulated BV2 lysates: iNOS: ++ (“++” indicates a p value < 0.01)
[3]; LPS-stimulated BV2
  AKT phosphorylation (result in words): significantly reduced
[3]; dose 0.001 nM
  Inflammatory Readout: pAKT (significance of reduction): ++ (“++” indicates a p value < 0.005 in Dunnett's multiple comparison)
[3]; dose 1 nM
  Inflammatory Readout: pAKT (significance of reduction): ++ (“++” indicates a p value < 0.005 in Dunnett's multiple comparison)
